Laboratory results as given in US12384753B2, “17-beta-hydroxysteroid dehydrogenase type 13 inhibitors and methods of use thereof” (Enanta Pharmaceuticals, Inc., priority 2021, dated 2025).

These molecules were tested against Recombinant human HSD17B13 (Homo sapiens (Human), UniProt Q7Z5P4) (assay: HSD17B13 rapid-fire mass spectrometry assay (RF/MS assay)). Conditions: inhibition of HSD17B13; LTB4 10 μM, NAD+ 0.5 mM, RT 3 h; IC50 ranges A-E.
Assay type: biochemical
Procedure, shortened: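 Sf9-expressed human HSD17B13 (80 nM) with 10 μM LTB4 and 0.5 mM NAD+, incubated with compound (0–100 μM) for 3 h at RT in Tris pH 7.5/BSA/Tween-20. After formic acid quench, LTB4 conversion to 12-oxo-LTB4 measured by RapidFire MS/MS. IC50 from normalised residual activity, duplicates.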

Sequence of Recombinant human HSD17B13 (Q7Z5P4 20-300): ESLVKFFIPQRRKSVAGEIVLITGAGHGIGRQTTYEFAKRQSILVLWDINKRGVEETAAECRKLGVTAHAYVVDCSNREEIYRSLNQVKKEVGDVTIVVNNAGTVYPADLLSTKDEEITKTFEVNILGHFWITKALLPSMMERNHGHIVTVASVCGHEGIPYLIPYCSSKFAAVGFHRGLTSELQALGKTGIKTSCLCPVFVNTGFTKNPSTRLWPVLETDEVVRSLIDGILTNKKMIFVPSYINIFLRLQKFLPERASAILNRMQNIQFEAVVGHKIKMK

SMILES | IC50 [µM]
O=C(O)c1ccc2cc(NS(=O)(=O)c3cnc(-c4ccc(F)cc4)s3)ccc2c1 [Example 387, 6-((2-(4-fluorophenyl)thiazole)-5-sulfonamido)-2-naphthoic acid] | 1 to 100
O=C(O)c1ccc2sc(NS(=O)(=O)c3cnc(-c4ccc(F)cc4)s3)nc2c1 [Example 388, 2-((2-(4-fluorophenyl)thiazole)-5-sulfonamido)benzo[d]thiazole-5-carboxylic acid] | 1 to 100
COc1cc(-c2ccc(C(=O)O)cc2)ccc1NS(=O)(=O)c1cnc(-c2ccc(F)cc2)s1 [Example 389, 4′-((2-(4-fluorophenyl)thiazole)-5-sulfonamido)-3′-methoxy-[1,1′-biphenyl]-4-carboxylic acid] | 1 to 100
COc1cc(-c2ccc(C(=O)O)cc2OC)ccc1NS(=O)(=O)c1cnc(-c2ccc(F)cc2)s1 [Example 390] | 1 to 100
COc1cc(C(=O)O)ccc1NS(=O)(=O)c1csc(C#Cc2ccc(C(N)=O)c(OC(F)(F)F)c2)n1 [Example 391] | 0.1 to 0.5
CCOP(=O)(OCC)c1ccc(NS(=O)(=O)c2csc(C#Cc3cccc(OC(F)(F)F)c3)n2)c(OC)c1 [Example 392, diethyl (3-methoxy-4-((2-((3-(trifluoromethoxy)phenyl)ethynyl)thiazole)-4-sulfonamido)phenyl)phosphonate] | 1 to 100
COc1cc(C(=O)O)ccc1NS(=O)(=O)c1csc(C#Cc2ccc(F)c(OC(F)(F)F)c2)n1 [Example 393, 4-((2-((4-fluoro-3-(trifluoromethoxy)phenyl)ethynyl)thiazole)-4-sulfonamido)-3-methoxybenzoic acid] | < 0.1
COc1cc(C(=O)O)ccc1NS(=O)(=O)c1csc(C#Cc2ccc(C(=O)O)c(OC(F)(F)F)c2)n1 [Example 394] | 1 to 100
COc1cc(C(=O)O)ccc1NS(=O)(=O)c1csc(C#Cc2ccc(OC)c(OC(F)(F)F)c2)n1 [Example 395] | < 0.1
COc1cc(C(=O)O)ccc1NS(=O)(=O)c1csc(C#Cc2ccc(C#N)c(OC(F)(F)F)c2)n1 [Example 397] | < 0.1
COC(=O)c1ccc(C#Cc2nc(S(=O)(=O)Nc3ccc(C(=O)O)cc3OC)cs2)cc1OC(F)(F)F [Example 398] | < 0.1
COc1ccc(C#Cc2nc(S(=O)(=O)Nc3ccc(C(=O)O)cc3OC)cs2)c(C(C)C)c1 [Example 399, 4-((2-((2-isopropyl-4-methoxyphenyl)ethynyl)thiazole)-4-sulfonamido)-3-methoxybenzoic acid] | < 0.1
CCOP(=O)(O)c1ccc(NS(=O)(=O)c2csc(C#Cc3cccc(OC(F)(F)F)c3)n2)c(OC)c1 [Example 400, ethyl hydrogen (3-methoxy-4-((2-((3-(trifluoromethoxy)phenyl)ethynyl)thiazole)-4-sulfonamido)phenyl)phosphonate] | 1 to 100
COc1cc(CC(=O)O)ccc1NS(=O)(=O)c1csc(C#Cc2cccc(OC(F)(F)F)c2)n1 [Example 401, 2-(3-methoxy-4-((2-((3-(trifluoromethoxy)phenyl)ethynyl)thiazole)-4-sulfonamido)phenyl)acetic acid] | 1 to 100
COc1ccc(OC(F)(F)F)cc1C#Cc1nc(S(=O)(=O)Nc2ccc(C(=O)O)cc2OC)cs1 [Example 402] | 0.1 to 0.5
COc1cc(C(=O)O)ccc1NS(=O)(=O)c1csc(-c2cccc3cnn(C)c23)n1 [Example 403, 3-methoxy-4-((2-(1-methyl-1H-indazol-7-yl)thiazole)-4-sulfonamido)benzoic acid] | 0.5 to 1
COc1cc(C(=O)O)ccc1NS(=O)(=O)c1csc(-c2ccc(-c3ccc4ccccc4c3)cc2)n1 [Example 404] | < 0.1
COc1cc(C(=O)O)ccc1NS(=O)(=O)c1csc(-c2ccc3cnccc3c2)n1 [Example 405] | 0.1 to 0.5
C=C(COC)c1ccc(-c2nc(S(=O)(=O)Nc3ccc(C(=O)O)cc3OC)cs2)cc1 [Example 406, 3-methoxy-4-((2-(4-(3-methoxyprop-1-en-2-yl)phenyl)thiazole)-4-sulfonamido)benzoic acid] | 0.1 to 0.5
COc1cc(C(=O)O)ccc1NS(=O)(=O)c1cccc(-c2ccc(F)cc2)n1 [Example 411, 4-((6-(4-fluorophenyl)pyridine)-2-sulfonamido)-3-methoxybenzoic acid] | 0.5 to 1
COc1cc(C(=O)O)ccc1NS(=O)(=O)c1cccc(-c2ccc(C3CCCCC3)cc2)n1 [Example 412] | 0.1 to 0.5
COc1cc(C(=O)O)ccc1NS(=O)(=O)c1coc(-c2ccc(C)cc2)n1 [Example 413] | < 0.1
COc1cc(C(=O)O)ccc1NS(=O)(=O)c1coc(-c2ccc(C(F)(F)F)cc2)n1 [Example 414] | < 0.1
COc1ccc(-c2nc(S(=O)(=O)Nc3ccc(C(=O)O)cc3OC)co2)cc1 [Example 415] | < 0.1

SMILES | IC50 [µM]
COc1cc(C(=O)O)ccc1NS(=O)(=O)c1coc(-c2ccc(OC(F)(F)F)cc2)n1 [Example 416] | < 0.1
COc1cc(C(=O)O)ccc1NS(=O)(=O)c1coc(-c2ccc(C3CCCCC3)cc2)n1 [Example 419] | 0.1 to 0.5
COc1cc(C(=O)O)ccc1NS(=O)(=O)c1coc(-c2ccc(C3CCC(C)(C)CC3)cc2)n1 [Example 420] | 0.1 to 0.5
COc1cc(C(=O)O)ccc1NS(=O)(=O)c1csc(-c2ccc(C3CCCC(OC)C3)cc2)n1 (stereo not drawn) [Example 426, 3-methoxy-4-((2-(4-(3-methoxycyclohexyl)phenyl)thiazole)-4-sulfonamido)benzoic acid] | 0.1 to 0.5
COc1cc(C(=O)O)ccc1NS(=O)(=O)c1cnc(-c2ccc(-c3ccc4c(c3)CCCC4)cc2)s1 [Example 427] | 0.1 to 0.5
COc1cc(C(=O)O)ccc1NS(=O)(=O)c1ccc(-c2ccc(C3CCC(C)(C)CC3)cc2)s1 [Example 428, 4-((5-(4-(4,4-dimethylcyclohexyl)phenyl)thiophene)-2-sulfonamido)-3-methoxybenzoic acid] | 0.1 to 0.5
COc1cc(C(=O)O)ccc1NS(=O)(=O)c1ccc(-c2ccc(C3=CCC(C)(C)CC3)cc2)s1 [Example 429, 4-((5-(4′,4′-dimethyl-2′,3′,4′,5′-tetrahydro-[1,1′-biphenyl]-4-yl)thiophene)-2-sulfonamido)-3-methoxybenzoic acid] | 0.1 to 0.5
COc1cc(C(=O)O)ccc1NS(=O)(=O)c1ccc(-c2ccc(C3(O)CCC(C)(C)CC3)cc2)s1 [Example 430, 4-((5-(4-(1-hydroxy-4,4-dimethylcyclohexyl)phenyl)thiophene)-2-sulfonamido)-3-methoxybenzoic acid] | 0.1 to 0.5
COc1cc(C(=O)O)ccc1NS(=O)(=O)c1cncc(-c2ccc(C3CCCCC3)cc2)c1 [Example 433, 4-((5-(4-cyclohexylphenyl)pyridine)-3-sulfonamido)-3-methoxybenzoic acid] | 0.5 to 1
COc1cc(C(=O)O)ccc1NS(=O)(=O)c1cncc(C#Cc2cccc(OC(F)(F)F)c2)c1 [Example 434, 3-methoxy-4-((5-((3-(trifluoromethoxy)phenyl)ethynyl)pyridine)-3-sulfonamido)benzoic acid] | 0.5 to 1
COc1cc(C(=O)O)ccc1NS(=O)(=O)c1cc(-c2ccc(C3CCCCC3)cc2)ccc1F [Example 435] | 0.5 to 1
COc1cc(C(=O)O)ccc1NS(=O)(=O)c1cccc(-c2ccc(C3CCCCC3)cc2)c1F [Example 436] | < 0.1
COc1cc(C(=O)O)ccc1NS(=O)(=O)c1ccc(F)c(-c2ccc(C3CCCCC3)cc2)c1 [Example 437] | 0.1 to 0.5
COc1cc(C(=O)O)ccc1NS(=O)(=O)c1cc(F)cc(-c2ccc(C3CCCCC3)cc2)c1 [Example 438] | < 0.1
COC/C=C/c1ccc(-c2ncc(S(=O)(=O)Nc3ccc(C(=O)O)cc3OC)s2)cc1 [Example 449, (E)-3-methoxy-4-((2-(4-(3-methoxyprop-1-en-1-yl)phenyl)thiazole)-5-sulfonamido)benzoic acid] | 0.1 to 0.5
C=C(c1ccc(-c2ncc(S(=O)(=O)Nc3ccc(C(=O)O)cc3OC)s2)cc1)C1CC1 [Example 450] | < 0.1
COc1cc(C(=O)O)ccc1NS(=O)(=O)c1cnc(-c2ccc(C3=CCC(c4ccccc4)CC3)cc2)s1 (stereo not drawn) [Example 451, 3-methoxy-4-((2-(2′,3′,4′,5′-tetrahydro-[1,1′:4′,1″-terphenyl]-4-yl)thiazole)-5-sulfonamido)benzoic acid] | 0.1 to 0.5
COc1cc(C(=O)O)ccc1NS(=O)(=O)c1cnc(-c2ccc(C3CCC(c4ccccc4)CC3)cc2)s1 (stereo not drawn) [Example 452, 3-methoxy-4-((2-(4-(4-phenylcyclohexyl)phenyl)thiazole)-5-sulfonamido)benzoic acid] | 0.1 to 0.5
COc1cc(C(=O)O)ccc1NS(=O)(=O)c1cnc(-c2ccc(C3CCC(C)(C)CC3)cc2)s1 [Example 453] | 0.1 to 0.5
COc1cc(C(=O)O)ccc1NS(=O)(=O)c1csc(C2=CCC(C)(C)CC2)n1 [Example 454, 4-((2-(4,4-dimethylcyclohex-1-en-1-yl)thiazole)-4-sulfonamido)-3-methoxybenzoic acid] | 0.1 to 0.5
COc1cc(C(=O)O)ccc1NS(=O)(=O)c1cnc(-c2ccc(C#CC3CCCC3)cc2)s1 [Example 455, 4-((2-(4-(cyclopentylethynyl)phenyl)thiazole)-5-sulfonamido)-3-methoxybenzoic acid] | 0.1 to 0.5
COc1cc(C(=O)O)ccc1NS(=O)(=O)c1ccc2sc(-c3ccc(C4CCC(C)(C)CC4)cc3)nc2c1 [Example 456, 4-((2-(4-(4,4-dimethylcyclohexyl)phenyl)benzo[d]thiazole)-5-sulfonamido)-3-methoxybenzoic acid] | 1 to 100
COc1cc(C(=O)O)ccc1NS(=O)(=O)c1csc(C2CCC(C)(C)CC2)n1 [Example 457, 4-((2-(4,4-dimethylcyclohexyl)thiazole)-4-sulfonamido)-3-methoxybenzoic acid] | 0.5 to 1
COc1cc(C(=O)O)ccc1NS(=O)(=O)N1Cc2nc(-c3ccc(C4CCC(C)(C)CC4)cc3)sc2C1 [Example 458] | 0.1 to 0.5
